Test results reported in ChEMBL document CHEMBL1201862, “PubChem BioAssay data set” (2004).
Each block holds one compound with its values, some of them ahead of it. Calls of active or inactive are those of the source.

How the values were obtained:
H9c2 = assay: cells; format: functional, cell-based; conditions: Rattus norvegicus, H9c2, Myocardium;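 further: confirmatory concentration-response retest of ultra-high-throughput screening hits for modulation of myocardial damage; cell death induced by hydrogen peroxide oxidative stress; compound pretreatment for 60 min then peroxide exposure for 2 h; potency is for protecting the cells against peroxide damage rather than for killing them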
INS1 = assay: beta cell apoptosis inhibitors, cytokine rescue, dose response, luminescence, retest (AID 449756); format: functional, cell-based; conditions: Rattus norvegicus;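 further: cell death triggered by IL-1 beta plus TNF-alpha plus IFN-gamma mixture; protective hits raise ATP signal compared with cytokine alone wells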
[1] = molecular target: T1, Corticotropin-releasing factor receptor 2/Corticotropin-releasing factor-binding protein (Homo sapiens, UniProt P24387+Q13324); assay: Dose Response confirmation of uHTS hits for small molecule antagonists of the CRF-binding protein and CRF-R2 receptor complex.; format: functional; conditions: read-out: IC50_Mean
T1 sequence (Q13324 whole entry): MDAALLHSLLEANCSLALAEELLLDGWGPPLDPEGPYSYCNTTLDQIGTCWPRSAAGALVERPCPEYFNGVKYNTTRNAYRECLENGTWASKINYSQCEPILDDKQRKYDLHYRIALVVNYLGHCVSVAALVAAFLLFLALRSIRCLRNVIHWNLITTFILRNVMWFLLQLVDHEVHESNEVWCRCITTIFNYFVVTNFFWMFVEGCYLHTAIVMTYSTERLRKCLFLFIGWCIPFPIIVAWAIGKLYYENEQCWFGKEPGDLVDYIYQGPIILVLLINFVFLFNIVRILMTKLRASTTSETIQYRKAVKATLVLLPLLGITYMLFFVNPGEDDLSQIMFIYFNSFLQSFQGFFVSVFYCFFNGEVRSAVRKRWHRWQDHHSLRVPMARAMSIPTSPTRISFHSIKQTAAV
T1 sequence (P24387 whole entry): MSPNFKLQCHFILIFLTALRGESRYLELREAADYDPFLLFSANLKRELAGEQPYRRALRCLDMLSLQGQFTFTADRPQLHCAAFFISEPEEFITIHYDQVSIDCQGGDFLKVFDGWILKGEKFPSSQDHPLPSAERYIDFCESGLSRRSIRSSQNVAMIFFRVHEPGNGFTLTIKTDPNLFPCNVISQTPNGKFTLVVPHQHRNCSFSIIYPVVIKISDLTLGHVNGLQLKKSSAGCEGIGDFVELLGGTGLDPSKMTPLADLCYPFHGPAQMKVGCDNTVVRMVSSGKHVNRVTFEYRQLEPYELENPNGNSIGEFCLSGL

[2] = molecular target: T1, Corticotropin-releasing factor receptor 2/Corticotropin-releasing factor-binding protein; assay: activators of CRF receptor 2 with binding protein – uHTS hits, confirmation (AID 602473); format: functional; conditions: read-out: EC50_Mean
[3] = CRF-BP/CRF-R2 complex antagonists, dose response, cell-based, uHTS hits, 384-well (AID 651639); format: functional, Homo sapiens; conditions: read-out: IC50_Mean
[4] = molecular target: T2, Sentrin-specific protease 8 (Homo sapiens, UniProt Q96LD8); assay: SENP8 protease inhibitors, SAR follow-up, biochemical, luminescence (AID 504501); format: functional
T2 sequence (Q96LD8 whole entry): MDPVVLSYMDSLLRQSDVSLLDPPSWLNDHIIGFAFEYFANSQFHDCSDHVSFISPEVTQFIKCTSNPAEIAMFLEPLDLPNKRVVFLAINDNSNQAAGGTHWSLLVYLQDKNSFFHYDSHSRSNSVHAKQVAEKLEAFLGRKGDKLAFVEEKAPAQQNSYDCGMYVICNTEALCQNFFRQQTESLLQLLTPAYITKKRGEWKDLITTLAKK

Caspase-3 = molecular target: T3, Caspase-3 (Homo sapiens, UniProt P42574); assay: SAR Analysis of small molecule inhibitors of Sentrin-specific proteases (SENPs) using a Caspase-3 Selectivity assay. [Related pubchem assays (depositor defined):AID2540, AID2599, AID434973, AID489001]; format: functional
T3 sequence (P42574 whole entry): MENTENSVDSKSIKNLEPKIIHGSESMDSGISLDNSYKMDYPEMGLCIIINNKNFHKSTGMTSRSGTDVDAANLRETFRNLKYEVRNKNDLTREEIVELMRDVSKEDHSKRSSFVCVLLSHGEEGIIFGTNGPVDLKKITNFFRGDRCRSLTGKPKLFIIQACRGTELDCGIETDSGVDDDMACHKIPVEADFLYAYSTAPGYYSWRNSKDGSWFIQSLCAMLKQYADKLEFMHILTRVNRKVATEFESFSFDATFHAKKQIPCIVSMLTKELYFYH

[5] = molecular target: T4, Sentrin-specific protease 6 (Homo sapiens, UniProt Q9GZR1); assay: SAR Analysis of small molecule inhibitors of Sentrin-specific protease 6 (SENP6) using a Luminescent assay. [Related pubchem assays (depositor defined):AID2582, AID2599]; format: functional
T4 sequence (Q9GZR1 whole entry): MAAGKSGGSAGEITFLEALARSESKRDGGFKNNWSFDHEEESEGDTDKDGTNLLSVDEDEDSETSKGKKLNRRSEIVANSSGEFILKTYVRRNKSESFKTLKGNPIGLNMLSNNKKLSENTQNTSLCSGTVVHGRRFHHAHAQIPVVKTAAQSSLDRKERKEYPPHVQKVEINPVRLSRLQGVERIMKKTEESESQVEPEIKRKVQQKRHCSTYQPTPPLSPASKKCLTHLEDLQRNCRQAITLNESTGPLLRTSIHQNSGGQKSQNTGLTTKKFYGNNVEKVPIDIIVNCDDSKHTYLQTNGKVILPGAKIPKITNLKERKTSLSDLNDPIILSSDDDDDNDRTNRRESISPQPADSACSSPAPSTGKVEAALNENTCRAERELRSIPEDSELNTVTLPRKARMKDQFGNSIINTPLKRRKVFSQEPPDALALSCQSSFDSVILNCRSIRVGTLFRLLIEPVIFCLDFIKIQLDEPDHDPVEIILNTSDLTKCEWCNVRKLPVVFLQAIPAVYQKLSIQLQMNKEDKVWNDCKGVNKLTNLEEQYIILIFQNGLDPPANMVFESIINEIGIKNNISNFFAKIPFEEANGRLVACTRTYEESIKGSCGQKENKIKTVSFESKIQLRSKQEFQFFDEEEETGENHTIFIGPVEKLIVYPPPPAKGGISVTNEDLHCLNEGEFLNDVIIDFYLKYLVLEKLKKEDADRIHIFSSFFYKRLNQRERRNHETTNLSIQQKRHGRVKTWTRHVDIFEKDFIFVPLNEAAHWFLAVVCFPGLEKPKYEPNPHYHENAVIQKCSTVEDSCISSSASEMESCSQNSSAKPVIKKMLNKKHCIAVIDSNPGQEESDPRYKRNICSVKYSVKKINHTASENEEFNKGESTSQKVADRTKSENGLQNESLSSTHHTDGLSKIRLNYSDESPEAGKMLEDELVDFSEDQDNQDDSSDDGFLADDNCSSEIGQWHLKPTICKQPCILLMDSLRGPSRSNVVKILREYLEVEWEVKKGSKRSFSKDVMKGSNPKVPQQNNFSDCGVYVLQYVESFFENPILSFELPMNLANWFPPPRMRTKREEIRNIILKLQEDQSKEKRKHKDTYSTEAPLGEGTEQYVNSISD

[6] = molecular target: T5, Sentrin-specific protease 7 (Homo sapiens, UniProt Q9BQF6); assay: SENP7 protease inhibitors, SAR follow-up, biochemical, luminescence (AID 504497); format: functional
T5 sequence (Q9BQF6 whole entry): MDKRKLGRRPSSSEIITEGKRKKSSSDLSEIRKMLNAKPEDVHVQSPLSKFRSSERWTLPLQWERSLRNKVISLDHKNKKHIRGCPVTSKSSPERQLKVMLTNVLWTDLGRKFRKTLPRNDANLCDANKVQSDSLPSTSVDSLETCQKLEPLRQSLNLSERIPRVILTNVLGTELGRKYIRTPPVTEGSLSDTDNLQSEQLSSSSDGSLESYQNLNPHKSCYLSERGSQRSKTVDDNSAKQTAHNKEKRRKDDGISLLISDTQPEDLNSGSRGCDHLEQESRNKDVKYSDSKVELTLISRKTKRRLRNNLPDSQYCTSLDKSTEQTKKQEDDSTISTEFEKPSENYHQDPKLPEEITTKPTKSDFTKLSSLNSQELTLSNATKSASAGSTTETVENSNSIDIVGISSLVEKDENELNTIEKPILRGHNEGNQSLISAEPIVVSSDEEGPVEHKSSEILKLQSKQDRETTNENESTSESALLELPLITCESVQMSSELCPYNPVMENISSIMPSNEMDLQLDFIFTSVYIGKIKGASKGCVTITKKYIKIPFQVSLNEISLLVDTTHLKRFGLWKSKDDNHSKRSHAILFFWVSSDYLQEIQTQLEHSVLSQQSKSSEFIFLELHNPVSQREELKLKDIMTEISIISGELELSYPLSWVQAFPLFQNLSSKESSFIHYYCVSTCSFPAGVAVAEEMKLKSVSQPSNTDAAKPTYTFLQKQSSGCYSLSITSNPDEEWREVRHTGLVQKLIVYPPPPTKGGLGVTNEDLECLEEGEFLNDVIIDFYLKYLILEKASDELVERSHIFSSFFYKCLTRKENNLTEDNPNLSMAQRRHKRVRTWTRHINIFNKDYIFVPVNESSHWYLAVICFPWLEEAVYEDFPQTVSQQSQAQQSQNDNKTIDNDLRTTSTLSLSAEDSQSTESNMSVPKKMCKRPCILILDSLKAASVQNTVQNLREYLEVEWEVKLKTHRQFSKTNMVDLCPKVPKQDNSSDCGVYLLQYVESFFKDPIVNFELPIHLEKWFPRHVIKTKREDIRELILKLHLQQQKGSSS

SN12K1 = assay: cells; format: functional; conditions: Homo sapiens
[7] = intracellular Trypanosoma cruzi inhibitors in host cells – cell-based, plate reader, cherry-pick samples, set 3, dose response (AID 651818); format: functional;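 further: compounds incubated with infected cells for about four days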

SMILES: CCOC(=O)c1c(C)[nH]c(C(=O)COc2ccc3ccc(=O)oc3c2)c1C
IC50 (H9c2): 23.7 µM (active)

SMILES: Cc1ccc(C(=O)Nc2nc(-c3ccccn3)cs2)s1
AC50 (INS1): 1.67 µM (active)
IC50 (H9c2): > 79 µM (inactive)

SMILES: Cc1ccc(C(C)C)c(OCC(=O)NNC(=O)Cn2[nH]c(=O)c3ccccc3c2=O)c1
IC50 (H9c2): > 79 µM (inactive)

SMILES: CCOc1cc(/C=C(\C#N)C(=O)Nc2ccc(S(N)(=O)=O)cc2)ccc1OCCN1CCOCC1
IC50 (H9c2): > 79 µM (inactive)

IC50 [1]: < 0.368 µM (active)
EC50 [2]: > 53 µM (inactive)
IC50 [3]: > 20 µM (inactive)
SMILES: Cc1ccc(S(=O)(=O)c2nnn3c2nc(N2CCOCC2)c2ccccc23)c(C)c1

IC50 [1]: 18.7 µM (active)
EC50 [2]: > 53 µM (inactive)
IC50 [3]: 8.28 µM (active)
SMILES: O=C(NCc1ccc2c(c1)OCO2)c1c(F)c(F)c(F)c(F)c1F

IC50 [1]: 7.86 µM (active)
EC50 [2]: > 53 µM (inactive)
IC50 [3]: 15.4 µM (active)
SMILES: COC(=O)c1ccc(CSc2nc3c(c(=O)n2-c2ccc(Br)cc2)SCC3)o1

IC50 [1]: 4.74 µM (active)
EC50 [2]: > 53 µM (inactive)
IC50 [3]: > 20 µM (inactive)
SMILES: Clc1cccc(-c2nnc(SC/C=C/c3ccccc3)n2Cc2ccco2)c1

SMILES: CC(C)(C)OC(=O)C[C@@H]1C/C=C\C[C@@H](CC(=O)N[C@H](CO)Cc2ccccc2)C(=O)NC[C@@H](c2ccccc2)OC1=O
IC50 (H9c2): > 79 µM (inactive)

SMILES: C[C@H](CO)N1C[C@H](C)[C@@H](CN(C)S(=O)(=O)c2ccc(F)cc2)Oc2ccc(NC(=O)Nc3ccc4c(c3)OCO4)cc2C1=O
IC50 (H9c2): > 79 µM (inactive)

IC50 (Caspase-3): > 99 µM (inactive)
IC50 [5]: > 99 µM (inactive)
IC50 [6]: > 99 µM (inactive)
SMILES: CCCc1ccccc1-c1nc(/C=C/c2ccccc2)no1
IC50 [4]: > 99 µM (inactive)

IC50 (Caspase-3): > 99 µM (inactive)
IC50 [5]: > 99 µM (inactive)
IC50 [6]: > 99 µM (inactive)
SMILES: CN(C)CCN(C(=O)c1ccc(Cl)s1)c1nc2ccc(F)cc2s1
IC50 [4]: > 99 µM (inactive)

IC50 (Caspase-3): > 99 µM (inactive)
IC50 [5]: > 99 µM (inactive)
IC50 [6]: > 99 µM (inactive)
SMILES: CCOc1ccc2nc(NC(=O)Cn3c(=O)oc4ccc(C(=O)N5CCCC5)cc43)sc2c1
IC50 [4]: > 99 µM (inactive)

IC50 (Caspase-3): > 99 µM (inactive)
IC50 [5]: > 99 µM (inactive)
IC50 [6]: > 99 µM (inactive)
SMILES: CCCCc1ccc2nc(NC(=O)c3oc4ccccc4c3C)sc2c1
IC50 [4]: > 99 µM (inactive)

IC50 (Caspase-3): > 99 µM (inactive)
IC50 [5]: > 99 µM (inactive)
IC50 [6]: > 99 µM (inactive)
SMILES: Cc1[nH]c(=O)sc1S(=O)(=O)N1CCN(C(=O)c2sc3cc(F)ccc3c2Cl)CC1
IC50 [4]: > 99 µM (inactive)

SMILES: O=C(OC(=O)n1ccc2ccccc21)n1ccc2ccccc21
GI50 (SN12K1): > 100 µM (inactive)

SMILES: Cc1noc(C)c1S(=O)(=O)Nc1ccc2c(c1)C(=O)N([C@@H](C)CO)C[C@H](C)[C@H](CN(C)Cc1ccc(C(=O)Nc3ccccc3N)cc1)O2
AC50 [7]: 2.08 µM (active)

SMILES: C[C@@H]1CN([C@H](C)CO)C(=O)Cc2cc(NC(=O)Cc3cn(C)c4ccccc34)ccc2O[C@H]1CN(C)CC1CCCCC1
AC50 [7]: 8.13 µM (active)

SMILES: C[C@@H]1CN([C@H](C)CO)C(=O)Cc2cc(NC(=O)Nc3cccc4ccccc34)ccc2O[C@@H]1CN(C)Cc1ccc(C(F)(F)F)cc1
AC50 [7]: 4.02 µM (active)

SMILES: C[C@@H]1CN([C@@H](C)CO)C(=O)c2cc(NC(=O)Cc3cn(C)c4ccccc34)ccc2O[C@H]1CN(C)Cc1ccc(C(F)(F)F)cc1
AC50 [7]: 4.31 µM (active)

SMILES: C[C@@H]1CN([C@H](C)CO)C(=O)Cc2cc(NC(=O)Nc3ccc(F)cc3)ccc2O[C@H]1CN(C)CC1CCCCC1
AC50 [7]: 6.17 µM (active)

SMILES: C[C@@H]1CN([C@H](C)CO)C(=O)Cc2cc(NS(=O)(=O)c3ccc(Cl)cc3)ccc2O[C@H]1CN(C)CC1CCCCC1
AC50 [7]: 2.67 µM (active)
